Data reported in article PMC5915154, “Aloe-emodin as drug candidate for cancer therapy” (Oncotarget, 2018).

Assays:
[1] = test system: HCT116 (p53+/+) colon cancer cells; assay: Resazurin reduction assay, HCT116 (p53+/+); type: cell-based; details: Homo sapiens, HCT-116, 72 h
Source text: (§1) The cell lines used in the present work, their origins and maintenance conditions were previously reported. In brief, drug-sensitive CCRF-CEM and multidrug resistant P-glycoprotein-over-expressing CEM/ADR5000 leukemia cells, MDA-MB-231-pcDNA3 breast cancer cells and their transfectant subline MDA-MB-231-BCRP clone 23, HCT116 (p53^+/+) colon cancer cells and its knockout clone HCT116 (p53^-/-), U87.MG glioblastoma multiform cells and their transfectant subline U87.MGΔEGFR as well as HEK293 human embryonic kidney cells transfected with or without a cDNA for ABCB5 were used. The human peripheral mononuclear cells (PMNC) were isolated from fresh blood samples of a healthy donor by using Histopaque® (Sigma-Aldrich, Taufkirchen, Germany).
(§2) Resazurin reduction assay was conducted to test the cytotoxicity of the compounds. This assay is based on the reduction of resazurin to resorufin by viable cells. […] Briefly, aliquots of 0.5×10^4 adherent cells which were allowed to attach overnight and 1×10^4 suspension cells per well were seeded in 96-well-plates with or without the addition of varying concentrations of the test substance to get a total volume of 200 μL/well. After 72 h incubation and addition of resazurin (Sigma-Aldrich) for 4 h, staining was measured by an Infinite M2000 ProTM plate reader (Tecan, Germany) using an excitation wavelength of 544 nm and an emission wavelength of 590 nm. […]

[2] = test system: mRNA expression (DUSP6, HHEX, MCMDC2, CRCP) in CCRF-CEM cells; assay: qPCR validation of microarray data; type: cell-based, human; details: CCRF-CEM treated vs untreated, normalized to GAPDH
Method: Primer sequences of HHEX, MCMDC2 and CRCP were designed using NCBI and GenScript Real Time PCR Primer Design (https://www.genscript.com/ssl-bin/app/primer) websites. DUSP6, HHEX, MCMDC2 and CRCP primers were synthesized by Eurofins MWG Operon (Ebersberg, Germany) and their sequence specificities were checked by NCBI Primer-Blast (http://www.ncbi.nlm.nih.gov/tools/primer-blast). The reaction properties of primers were calculated by Eurofins genomics (https://www.eurofinsgenomics.eu/en/dna-rna-oligonucleotides/oligo-design-more/oligo-property-scan.aspx). The primer sequences were as follows: DUSP6, forward (5′–3′): […], reverse (5′–3′): […] [75]; HHEX, forward: […], reverse: […]; MCMDC2, forward: […], reverse: […]; CRCP, forward: […], reverse: […]. Total RNA was isolated by InviTrap Spin Universal RNA Mini kit (Stratec Molecular) according to the manufacturer’s instruction. One microgram RNA was converted to cDNA using RevertAid H Minus First Strand cDNA Synthesis Kit (Thermo Scientific). The mRNA levels were analyzed by using of 5×Hot Start Tag EvaGreen® qPCR Mix (no ROX) (Axon Labortechnik, Kaiserslautern, Germany) and CFX384™ Real-Time PCR Detection System (Bio-Rad, Munich, Germany). RT-PCR was performed with an initial denaturation at 95°C for 10 second followed by 40 cycles including strand separation at 95°C for 15 s, annealing at 62°C for 30 s and extension at […] for 1 min. The GAPDH, HPRT1 and RLP13 genes were used as housekeeping genes. The expression data were normalized using Bestkeeper software. […] Therefore, GAPDH was used for normalization. Forward and reverse primer sequences of GAPDH were […] for forward and […] for reverse, respectively.
Furthermore, forward and reverse primer sequences of HPRT1 were […] for forward and […] for reverse as well as of RLP13A were TATGCTGCCCCACAAAACC for forward and […] for reverse, respectively. • The quantification method was done as follow: • ΔCt = Ct gene test – Ct endogenous control. • ΔΔCt = ΔCt sample1 – ΔCt calibrator. • RQ = Relative quantification = 2-ΔΔCt.
The RQ is the fold-change compared to the calibrator (untreated sample, time zero, etc.). The calibrator has an RQ value of 1. All samples were compared to the calibrator.

[3] = test system: HEK293-ABCB5 cells; assay: Resazurin reduction assay, HEK293-ABCB5; type: cell-based; details: Homo sapiens, 72 h
Source text: as §1, §2

[4] = test system: mRNA expression (DUSP6, HHEX, MCMDC2, CRCP) in CCRF-CEM cells; assay: Microarray-based mRNA expression profiling; type: cell-based, human; details: CCRF-CEM treated with IC50 for 48 h vs DMSO; FC: fold change
Method: We performed microarray hybridizations to find clues on the possible mechanisms of action of Aloe-emodin. CCRF-CEM cells were treated with the IC50 of Aloe-emodin or DMSO for 48 h. Using Chipster software, 1712 genes were deregulated upon Aloe-emodin treatment in comparison with DMSO treatment as control. These genes were subsequently subjected to Ingenuity Pathway Analysis (IPA) to obtain profiles of possibly affected signaling pathways. The most pronounced molecular and cellular functions identified by IPA were: cell death and survival, cellular growth and proliferation, cellular development, gene expression, cellular function and maintenance (Figure 4A).
Total RNA was isolated by InviTrap Spin Universal RNA Mini kit (Stratec Molecular, Berlin, Germany) according to the manufacturer’s instructions. The quality control of total RNA, probe labeling, hybridization, scanning and data analysis was performed in the Genomics and Proteomics Core Facility at the German Cancer Research Center (DKFZ, Heidelberg, Germany). Details have been previously described. The Chipster software was used to filter the set of differentially expressed genes obtained from microarray hybridization (http://chipster.csc.fi/) with a p value lower than 0.05. These filtered genes with fold-changes of more than 1-fold were selected for Ingenuity Pathways Analysis Software (http://www.ingenuity.com/ Ingenuity Systems, Redwood City, CA, USA) to obtain profiles of genetic networks and signaling pathways. The protocol has been recently reported by us.

[5] = test system: HCT116 (p53-/-) knockout colon cancer cells; assay: Resazurin reduction assay, HCT116 (p53-/-); type: cell-based, human
Source text: as §1, §2

IC50 [1]: 16.5 µM
IC50 ([5]; Homo sapiens, HCT-116, HCT116(p53-/-), resazurin assay, 72 h): 11.2 µM
Compound: O=C1c2cccc(O)c2C(=O)c2c(O)cc(CO)cc21 [Aloe-emodin]
qPCR data (FC), CRCP [2]: -2.63 FC
qPCR data (FC), DUSP6 [2]: 1.40 FC
qPCR data (FC), HHEX [2]: 2.23 FC
qPCR data (FC), MCMDC2 [2]: -2.47 FC
IC50 [3]: 25.9 µM
Microarray data (FC), CRCP [4]: -2.219 FC
Microarray data (FC), DUSP6 [4]: 2.403 FC
Microarray data (FC), HHEX [4]: 2.321 FC
Microarray data (FC), MCMDC2 [4]: -2.227 FC
degree of resistance (collateral sensitivity) ([5]; HCT116 (p53-/-) knockout cells vs HCT116 (p53+/+)): 0.68 fold
